One data set deals with Ph+ ALL cells. Briefly: Killing of Philadelphia positive ALL cells in methylcellulose colony culture. The data set is classed as cell-based, human. As for the experimental part: Ph+ ALL cells were plated in 1 ml volumes, in the absence of exogenous growth factors, into 35 mm petri dishes (Nunc, Gibco) containing alpha MEM (Gibco) plus 10% FCS (Cansera Rexdale, ON.) in 0.9% (vol/vol) methylcellulose (Fluka, Switzerland) with the indicated concentrations of CR4. Cultures were set at 37° C., 5% CO2 in a humidified atmosphere. Colonies consisting of more than 20 cells were counted at 12 days or earlier using an inverted microscope.
ALL cells were plated in 1 ml volumes, in the absence of exogenous growth factors, into 35 mm petri dishes (Nunc, Gibco) containing alpha MEM (Gibco) plus 20% FCS (Cansera Rexdale, ON.) in 0.9% (vol/vol) methylcellulose (Fluka, Switzerland) and the indicated concentrations of compound. Cultures were set at 37° C., 5% CO2 in a humidified atmosphere. Colonies consisting of more than 20 cells were counted at 12 days or earlier using an inverted microscope.
ALL cells were plated in 1 ml volumes, in the absence of exogenous growth factors, into 35 mm petri dishes (Nunc, Gibco) containing alpha MEM (Gibco) plus 20% FCS (Cansera Rexdale, ON.) in 0.9% (vol/vol) methylcellulose (Fluka, Switzerland) and the indicated concentrations of CR24. Cultures were set at 37° C., 5% CO2 in a humidified atmosphere. Colonies consisting of more than 20 cells were counted at 9 days or earlier using an inverted microscope. […]

Data set [1] deals with normal bone marrow cells. Kind of data set: CFU-GEMM assay, normal bone marrow differentiation in culture. The data set is classed as cell-based. The conditions noted are these: 14 days. As for the experimental part: The CFU-GEMM assay was performed according to Fauser and Messner (1978, Blood, 52(6) 143–8) and Messner and Fausser (1980, Blut, 41(5) 327–33) with some variations. In brief, heparinized bone marrow cells were layered over Percoll (1.077 gm/ml) (Pharmacia Fine Chemical, Piscataway N.J.) and centrifuged at 400 g at 4° C. for 10 minutes to remove neutrophils and RBCs. The fractionated BM cells at 2×10^5 cells/ml were cultured in IMDM (OCI, Toronto) containing 0.9% (vol/vol) methylcellulose supplemented with 30% FCS (Cansera Rexdale, ON.) or normal human plasma, a cocktail of cytokines containing G-CSF (10 ng/ml, Amgen), IL-3 (40 U/ml, Immunex), MGF (50 ng/ml, Immunex), Erythropoietin (2 u/ml, Epprex) or TPO (10 ng/ml, Amgen), 5×10^−5M β-2-mercaptoethanol and the specified concentration of CR4. The culture mixture was plated in 1 ml volumes into 35 mm petri dishes and incubated at 37° C., 5% CO2 in a humidified atmosphere. All cultures were evaluated at 14 days for the number of BFU-E colonies (defined as aggregates of more than 500 hemoglobinized cells or, 3 or more erythroid subcolonies), CFU-GM colonies (defined as granulocyte or monocyte-macrophage cells or both), CFU-Meg colonies (comprising 4 or more megakaryocytes) and CFU-GEMM colonies (a mixed population comprising of all elements).
The CFU-GEMM assay was performed according to Fauser and Messner (1978, Blood, 52(6) 1243–8) and Messner and Fausser (1980, Blut, 41(5) 327–33) with some variations. In brief, heparinized bone marrow cells were layered over Percoll (1.077 gm/ml) (Pharmacia Fine Chemical, Piscataway N.J.) and centrifuged at 400 g at 4° C. for 10 minutes to remove neutrophils and RBCs. […] All cultures were evaluated at 14 days for the number of BFU-E colonies (defined as aggregates of more than 500 hemaglobinized cells or, 3 or more erythroid subcolonies) and CFU-C colonies (defined as granulocyte or monocyte-macrophage cells or both).
The CFU-GEMM assay was performed according to Fauser and Messner (1978, Blood, 52(6) 1243–8) and Messner and Fausser (1980, Blut, 41(5) 327–33) with some variations (British Journal of Haematology, 1992, 80, p40–48). […] All cultures were evaluated at 14 days for the number of BFU-E colonies (defined as aggregates of more than 500 hemoglobinized cells or, 3 or more erythroid subcolonies) and CFU-C colonies (defined as granulocyte or monocyte-macrophage cells or both).

Data set [2] deals with variety of cancer cells (ALL, Philadelphia positive ALL, acute myeloid leukemia, myeloma, B-lineage lymphoma). Kind of data set: Cancer cell growth in culture, summary statements. Format: cell-based. The conditions noted are these: for efficacy against a variety of cell types (Acute Lymphoblastic Leukemia, Philadelphia positive Leukemia, Acute Myeloid Leukemia): in culture.
Data set [3] has as its system Philadelphia positive ALL, AML and lymphoma. Briefly: In vitro / ex vivo purging assays, summary statements. Format: cell-based.
For data set [4], the system named is normal bone marrow cells. Kind of data set: In vitro purging of normal bone marrow. Format: cell-based. The following applies: 50 μM, seven hours exposure, FIG. 21. As for the experimental part:
Heparinized bone marrow cells were layered over Percoll (1.077 gm/ml) (Pharmacia Fine Chemical, Piscataway N.J.) and centrifuged at 400 g at 4° C. for 10 minutes to remove neutrophils and RBCs.
For the purging process, the cells were resuspended at 1×10^6/ml in complete medium with or without 50 μM CR4. The cells were incubated with the CR4 for two and a half hours at 37° C., 5% CO2. At the end of this period the cells were thoroughly washed in medium to remove CR4 and then cultured at 2×10^5 cells/ml in IMDM (OCI, Toronto) containing 0.9% (vol/vol) methylcellulose supplemented with 30% FCS (Cansera Rexdale, ON.) or normal human plasma, a cocktail of cytokines containing G-CSF (10 ng/ml, Amgen), IL-3 (40 U/ml, Immunex), MGF (50 ng/ml, Immunex), Erythropoietin (2 u/ml, Epprex) or TPO (10 ng/ml, Amgen) and 5×10^−5M b-2-mercaptoethanol. The culture mixture was plated in 1 ml volumes into 35 mm petri dishes and incubated at 37° C., 5% CO2 in a humidified atmosphere. All cultures were evaluated at 14 days for the number of BFU-E colonies (defined as aggregates of more than 500 hemaglobinized cells or, 3 or more erythroid subcolonies), CFU-C colonies (defined as granulocyte or monocyte-macrophage cells or both) and CFU-GEMM colonies (a mixed population comprising of all elements).
For the purging process, the cells were resuspended at 1×10^6/ml in complete medium with or without 50 μM CR11. The cells were incubated with the tryrphostin for seven hours at 37° C., 5% CO2. At the end of this period the cells were thoroughly washed in medium to remove CR11 and then cultured at 2×10^5 cells/ml in IMDM (OCI, Toronto) containing 0.9% (vol/vol) methylcellulose supplementd with 30% FCS (Cansera Rexdale, ON.) or normal human plasma, a cocktail of cytokines containing G-CSF (10 ng/ml, Amgen), IL-3 (40 U/ml, Immunex), MGF (50 ng/ml, Immunex), Erythropoietin (2 u/ml, Epprex) or TPO (10 ng/ml, Amgen) and 5×10^−5M β-2-mercaptoethanol. The culture mixture was plated in 1 ml volumes into 35 mm petri dishes and incubated at 37° C., 5% CO2 in a humidified atmosphere. All cultures were evaluated at 14 days for the number of BFU-E colonies (defined as aggregates of more than 500 hemoglobinized cells or, 3 or more erythroid subcolonies), CFU-C colonies (defined as granulocyte or monocyte-macrophage cells or both) and CFU-GEMM colonies (a mixed population comprising of all elements).

The structures appear in SMILES notation.

As to `N#C/C(=C\C=C\c1ccc(O)c(O)c1)C(=O)NCc1ccc(O)c(O)c1` [CR21, (E,E)-2-(3,4 Dihydroxybenzylamido)-3-(3,4-dihydroxystyryl)acrylonitrile], the “concentration inhibiting cell growth” value in the data set on Ph+ ALL cells (Ph+ ALL, colonies at 12 days, FIG. 8) worked out at 5 µM. Also, in the data set with normal bone marrow cells [1] (20 μM, FIG. 13), the “inhibition of BFU-E colony formation” value is on record as “inhibition”.

For `N#C/C(=C\C=C\c1ccccc1)C(=O)NCc1ccc(O)c(O)c1` [CR19, (E,E)-2-(3,4 Dihydroxybenzylamido)-3-styrylacrylonitrile], in the data set with normal bone marrow cells [1] (5 μM, FIG. 12), the “stimulatory effect on CFU-C colony formation” value is reported as “disappeared”. Besides, the “efficacy against a variety of cell types (Acute Lymphoblastic Leukemia, Philadelphia positive Leukemia, Acute Myeloid Leukemia)” value in data set [2] was “highly effective”. Further, the “toxicity to cancer cells” value in data set [2] (low nanomolar doses, long term exposure) was “highly toxic”.

`COc1cc(/C=C/C=C(\C#N)C(=O)NCCO)cc(OC)c1O` [CR24, (E,E)-2-(β-Ethanolamido)-3-(3,5-dimethoxy-4-hydroxystyryl)acrylonitrile]: the “lowest concentration effective against Ph+ ALL cells” value in the data set on Ph+ ALL cells (colonies at 9 days, FIG. 10) was found to be 0.5 µM.

Take `COc1cc(/C=C/C=C(\C#N)C(=O)NCc2ccc(O)c(O)c2)cc(OC)c1O` [CR11, (E,E)-2-(3,4-Dihydroxybenzylamido)-3-(3,5-dimethoxy-4-hydroxystyryl)acrylonitrile]: the “efficacy as ex vivo purging agents” value in data set [3] was “effective”. Moreover, the “inhibition of colony formation” value in the data set on normal bone marrow cells [4] (14 days) is “did not result in any significant inhibition”. Further, the “BFU-E, CFU-GEMM and CFU-C colonies” value in the data set with normal bone marrow cells [4] is given as “all normal”. Also, in data set [2], the “efficacy against a variety of cell types (Acute Lymphoblastic Leukemia, Philadelphia positive Leukemia, Acute Myeloid Leukemia)” value was “highly effective”.

Source of the values: patent US7012095B2, “Compounds for modulating cell proliferation” (HSC Research and Development Limited, priority 2000, dated 2006).
